“And” between values parts separate entries of the source, which are not always exact repeats. Equal values may be shown once.
Tests used:
Rattus norvegicus [1] = conditions: oral; for NOAEL: subchronic
Rattus norvegicus [2] = conditions: for LD50 / LC50: acute
Rattus norvegicus [3] = conditions: developmental; duration: 1 days; oral; gavage; M/F; Wistar; developmental
Rattus norvegicus [4] = conditions: M/F
[5] = subchronic, duration: 90 days, oral, gavage, Sprague-Dawley

How did the NOAEL (Rattus norvegicus [1]; duration: 90 days, diet, M/F, Wistar, Hematology: RBC increase, MCV decrease, MCH decrease, HGB decrease, MCHC decrease + Absolute Organ Weight: Liver decrease) turn out when `O=P([O-])(O)CN(CCN(CCN(CP(=O)(O)O)CP(=O)(O)O)CP(=O)(O)O)CP(=O)(O)O.[Na+]` was run?
Its NOAEL is 96 mg/kg-day.

For `Clc1ccc(OCCOCc2ccc(COCCOc3ccc(Cl)cc3)cc2)cc1`, which NOEL (Rattus norvegicus [1]; short-term, duration: 28 days, gavage, M/F, Body Weight Changes: Body weight gain decrease + Food Consumption: decrease + Blood Chemistry: ALB increase, A/G increase + Organ Weight: …) is on record?
Its NOEL is 8 mg/kg-day.

With `NC1=CC(=O)C(N=Nc2ccc(Nc3ccc(N=Nc4c(S(=O)(=O)[O-])cc5c(c4N)C(=O)C(N=Nc4ccccc4)C(S(=O)(=O)[O-])=C5)cc3S(=O)(=O)[O-])cc2)C=C1.[Na+].[Na+].[Na+]` (configuration not stated) as the molecule, how does the NOEL (Rattus norvegicus [1]; short-term, duration: 28 days, gavage, M/F, Hematology: MET-HGB increase, RET increase, RBC decrease, HGB decrease, MCHC decrease, MCV increase, PCV decrease, MCH increase, HEINZ …) read?
Its NOEL is under 50 mg/kg-day.

With `CC(=O)Nc1cc(Nc2nc(Nc3ccc(N=Nc4cccc(S(=O)(=O)[O-])c4)c(NC(C)=O)c3)nc(N3CCOCC3)n2)ccc1N=Nc1cccc(S(=O)(=O)[O-])c1.[Na+].[Na+]` as the molecule, how does the NOEL (Rattus norvegicus [1]; short-term, duration: 28 days, gavage, M/F, Urinalysis: Bil increase + Blood Chemistry: T-Bil increase, UA increase) read?
The NOEL was 200 mg/kg-day.

With `CC(C)(c1ccc(O)cc1)c1ccc(C(C)(c2ccc(O)cc2)c2ccc(O)cc2)cc1` as the molecule, how does the NOEL (Rattus norvegicus [1]; short-term, duration: 28 days, gavage, M/F, Crj:CD, Hematology: Plt increase + Blood Chemistry: GPT increase, TG increase, Cho increase, TP decrease, LH decrease, , FSH decrease, Estradiol …) read?
Its NOEL is 300 mg/kg-day.

How did the NOAEL (Rattus norvegicus [2]; reproduction developmental, duration: 14 days, injection, subcutaneous, F, Wistar) turn out when `Cc1cc(N(C)C)ccc1[P+](=O)[O-].[Na+]` was run?
The NOAEL was 50 mg/kg-day.

For `CCCCCCCCCCCCOCCOS(=O)(=O)[O-].[Na+]`, which LD50 (Rattus norvegicus [2]; oral) is on record?
Its LD50 is 1600 mg/kg.

With `CCCCCCCCOC(=O)CCc1cc(-n2nc3ccccc3n2)c(O)c(C(C)(C)C)c1` as the molecule, how does the NOEL (Rattus norvegicus [1]; short-term, duration: 28 days, gavage, M/F, Body Weight Changes: Body weight gain decrease + Hematology: PT increase + Blood Chemistry: GOT increase, GPT increase, T-CHO increase, TG …) read?
The NOEL was 2 mg/kg-day.

How did the LD50 (Rattus norvegicus [2]; dermal, semiocclusive, Sprague-Dawley) turn out when `CCN(CC)c1ccc2c(c1)Oc1cc(C)c(Nc3ccc(C)cc3C)cc1C21OC(=O)c2ccccc21` (configuration not stated) was run?
The LD50 was over 2000 mg/kg.

And the LD50 (Rattus norvegicus [2]; oral, gavage, Sprague-Dawley)?
The LD50 was over 10000 mg/kg.

For `CCN(CC)c1ccc2c(c1)Oc1cc(C)c(Nc3ccccc3)cc1C21OC(=O)c2ccccc21` (configuration not stated), which LD50 (Rattus norvegicus [2]; oral, gavage, Sprague-Dawley) is on record?
Its LD50 is over 2000 mg/kg.

With `CCN1CCc2c3n(c4ccccc24)C(C(=O)OC)=CCC31.Cl` (configuration not stated) as the molecule, how does the NOEL (Rattus norvegicus [1]; chronic, duration: 91 days, gavage, M/F, CD, Clinical Observation: Salivation Greenish urine + Urinalysis: Greenish, or Dark green urine Quarry placoid crystal Urinary cast Volume …) read?
The NOEL was 50 mg/kg-day.

How did the NOAEL (Rattus norvegicus [1]; duration: 13 weeks, gavage, M/F, Fischer 344, Body Weight Changes: decrease + Food Consumption: decrease + Hematology: RBC decrease, HCT decrease, HGB decrease, MCV increase, MCH …) turn out when `CC1=C(C)C(=O)C(C(CCCCCC(=O)O)c2ccccc2)=C(C)C1=O` (racemic) was run?
Its NOAEL is 20 mg/kg-day.

Which LD50 (Rattus norvegicus [2]; oral, gavage) does the source give for `CC(O)CN(CCN(CC(C)O)CC(C)O)CC(C)O` (configuration not stated) [1,1',1'',1'''-(Ethylenedinitrilo)tetrakis(2-propanol)] here?
The LD50 was 11200 mg/kg.

And the NOAEL (Rattus norvegicus [2]; subchronic, duration: 3 months, oral, diet, Harlan)?
The NOAEL was ≥ 600 mg/kg-day and ≤ 900 mg/kg-day.

Which NOAEL (Rattus norvegicus [1]; duration: 35 days, gavage, M, Wistar, Clinical Observation: Salivation / No description about sex and dosages Pushing the head through the bedding material / No description …) does the source give for `C[Si](O[Si](C)(C)C)O[Si](C)(C)C` [1,1,1,3,5,5,5-Heptamethyltrisiloxane] here?
The NOAEL was 50 mg/kg-day.

For `Clc1cccc(Cl)c1` [1,3-Dichlorobenzene], which LD50 (Rattus norvegicus [2]; oral, gavage, Sprague-Dawley) is on record?
The LD50 was 1200 mg/kg and 1100 mg/kg and 1000 mg/kg.

What about the NOAEL (Rattus norvegicus [2]; reproduction developmental, duration: 10 days, oral, gavage, F, Sprague-Dawley) of the same molecule?
Its NOAEL is 200 mg/kg-day.

What about the NOAEL (Rattus norvegicus [2]; reproduction developmental, duration: 10 days, oral, gavage, Sprague-Dawley, generation: F1) of the same molecule?
The NOAEL was 200 mg/kg-day.

What about the NOAEL (Rattus norvegicus [2]; reproduction developmental, duration: 90 days, oral, gavage, Sprague-Dawley, generation: F0) of the same molecule?
The NOAEL was 147 mg/kg-day.

What about the LOAEL (Rattus norvegicus [2]; [5]) of the same molecule?
The LOAEL was 147 mg/kg-day.

What about the NOAEL (Rattus norvegicus [2]; [5]) of the same molecule?
Its NOAEL is 37 mg/kg-day.

Which LD50 (Rattus norvegicus [2]; oral, gavage) does the source give for `OCCN1CCNCC1` [1-Piperazineethanol] here?
The LD50 was 2000 mg/kg.

What about the NOAEL (Rattus norvegicus [2]; short-term, duration: 7 days, oral, diet, F, Wistar) of the same molecule?
Its NOAEL is 1610 mg/kg-day.

What about the NOAEL (Rattus norvegicus [2]; short-term, duration: 7 days, oral, diet, M, Wistar) of the same molecule?
Its NOAEL is 3720 mg/kg-day.

What does the source list for `Brc1ccc(Oc2cc(Br)c(Br)cc2Br)c(Br)c1` [2,2',4,4',5-Pentabromodiphenyl ether]?
LOAEL (Rattus norvegicus [3]): 0.06 mg/kg-day; LOEL (Rattus norvegicus [4]; developmental, injection, intraperitoneal, Wistar, generation: F1, F1: Y maze): 30 mg/kg-day; LOEL (Rattus norvegicus [4]; reproduction developmental, oral, gavage, Crl:CD(SD), generation: P0, P0: Morris water maze (latency, significant trial)): 2 mg/kg-day

For `CC(C)(C)c1ccc(O)c(C(C)(C)C)c1` [2,4-Di-tert-butylphenol], which LD50 (Rattus norvegicus [2]; oral, gavage, albino) is on record?
The LD50 was 1500 mg/kg and 1300 mg/kg and 2100 mg/kg.

For `CCN(CC#N)c1cccc(C)c1` [2-(Ethyl(3-methylphenyl)amino)acetonitrile], which NOAEL (Rattus norvegicus [2]; developmental, duration: 38 days, oral, gavage, Sprague-Dawley) is on record?
The NOAEL was 150 mg/kg-day.

What about the NOAEL (Rattus norvegicus [2]; reproduction developmental, duration: 38 days, oral, gavage, Sprague-Dawley, generation: F0) of the same molecule?
Its NOAEL is 25 mg/kg-day.

And the NOAEL (Rattus norvegicus [2]; reproduction developmental, duration: 38 days, oral, gavage, Sprague-Dawley, generation: F1)?
Its NOAEL is 150 mg/kg-day.

What does the source list for `CC(CN)CCCN` (configuration not stated) [2-Methylpentanediamine]?
LC50 (Rattus norvegicus [2]; inhalation, CRL:CD BR): 4.1 µg/mL and 2.9 µg/mL; LD50 (Rattus norvegicus [2]; oral, gavage, Crl:CD(SD)): 1690 mg/kg; NOAEL (Rattus norvegicus [2]; short-term, duration: 28 days, oral, diet, F, CRL:CD BR): 3000 ppm; NOAEL (Rattus norvegicus [2]; short-term, duration: 28 days, oral, diet, M, CRL:CD BR): 10000 ppm

For `CCN(CC)c1ccc(C(=O)c2ccccc2C(=O)O)c(O)c1` [2-[4-(Diethylamino)-2-hydroxybenzoyl]benzoic acid], which LD50 (Rattus norvegicus [2]; oral, gavage, Sprague-Dawley) is on record?
The LD50 was over 5000 mg/kg.

What does the source list for `CC(C)(c1ccccc1)c1ccc(O)cc1` [4-Cumylphenol]?
LD50 (Rattus norvegicus [2]; oral, Sprague-Dawley): 1770 mg/kg; LD50 (Rattus norvegicus [2]; oral, gavage, Sprague-Dawley): 1770 mg/kg

How did the NOAEL (Rattus norvegicus [2]; developmental, dermal) turn out when `COc1ccc(O)cc1` [4-Methoxyphenol] was run?
The NOAEL was 40 mg/kg-day.

And the NOAEL (Rattus norvegicus [2]; reproduction developmental, dermal, F)?
Its NOAEL is 40 mg/kg-day.

With `CCCCCCC1C=CC(CCCCCCCC(=O)O)CC1C(=O)O` (configuration not stated) [5(6)-Carboxy-4-hexyl-2-cyclohexene-1-octanoic acid] as the molecule, how does the LD50 (Rattus norvegicus [2]; oral, gavage, Sprague-Dawley) read?
Its LD50 is 6180 mg/kg.

Which results are given for `O=c1c2ccccc2[nH]c2cc3c(=O)c4ccccc4[nH]c3cc12` [5,12-Dihydroquino[2,3-b]acridine-7,14-dione]?
LC50 (Rattus norvegicus [2]; inhalation, Crl:CD(SD)): ≥ 3.1 µg/mL; LD50 (Rattus norvegicus [2]; oral, gavage, albino): ≥ 7500 mg/kg

With `CCCCCCCC/C=C\CCCCCCCC#N` [(Z)-9-Octadecenenitrile] as the molecule, how does the LD50 (Rattus norvegicus [2]; oral, gavage, Sprague-Dawley) read?
Its LD50 is over 5000 mg/kg.

`CCCCCCCC/C=C\CCCCCCCCN` [(Z)-9-Octadecenylamine] was tested. Which LD50 (Rattus norvegicus [2]; oral, gavage, Sprague-Dawley) did it give?
Its LD50 is 1180 mg/kg and 1690 mg/kg.

How did the NOAEL (Rattus norvegicus [2]; reproduction developmental, inhalation, Sprague-Dawley) turn out when `CCCC` [Butane] was run?
Its NOAEL is 21400 mg/m3.

Source: EPA's ToxValDB 9.5
